According to US20220144812A1, “QUINOLINE DERIVATIVES AND THEIR USE FOR THE TREATMENT OF CANCER” (Epizyme, Inc., priority 2019, published 2022):
Like-named read-outs stand apart in the source and are kept apart here.

Legend:
CREBBP (1084-1701) = target: T1, CREBBP (1084-1701) (Homo sapiens, UniProt Q92793); experiment: Biochemical assay for CREBBP (1084-1701), SAMDI; conditions: SAMDI, read-out: CREBBP Biochemistry IC50
T1 construct: measured in the following biochemical assay using CREBBP (1084-1701); purchased
Description: The following example describes materials and methods relating to a biochemical assay for CREBBP (1084-1701). IC50 values (micromolar (μM)) are summarized in Table 1, Table 2, and Table 3 under the column labeled: “CREBBP Biochemistry IC50 (micromolar).”
MATERIALS: Reagents 1M Tris pH 8.0, Tween 20 10%, DTT, bovine serum gelatin (BSG) 2%, Peptide #233 (biotin-H3 11-25, K14R, K23R), Acetyl-CoA, CREBBP (1084-1701), formic acid (100%), and sodium bicarbonate were commercially available.
METHODS: The effect of compounds was measured in the following biochemical assay using CREBBP (1084-1701). Enzyme mix 30 μL per well was added using a Multi-drop to wells of prepared Compound Stock plate. The enzyme was incubated in the Compound Stock plate for 30 minutes at room temperature. Substrate mix, 20 μL per well, was added to Compound Stock plate using a Multi-drop. The plate was covered and incubate 30 minutes at room temperature. The reaction was stopped with addition of 5 μL per well of 5% formic acid using a Multi-drop. The plate was Incubated for 30 minutes at room temperature. The reaction mixture was neutralized with addition of 5 μL per well of 10% sodium bicarbonate using a Multi-drop. The plate was Incubated for 35 minutes at room temperature. The reaction mixture was Transferred 2.5 μL per well to a SAMDI biochip. The plate was Incubated for 60 minutes at room temperature. The samples were washed, dried, and matrix applied to SAMDI biochip. The SAMDI biochip was then read on the mass spectrometer.

[1] = test system: H3K18Ac in HB-CLS-2 cells; experiment: H3K18AC in-cell western (ICW) assay; assay type: cell-based; conditions: H3K18Ac in-cell western, read-out: CREBBP ICW IC50
Description: The following example describes methods and materials relating to an H3K18AC in-cell western assay. IC50 values (micromolar (μM)) are summarized in Table 1, Table 2, and Table 3 under the column labeled: “CREBBP ICW IC50 (micromolar).”
MATERIALS: HB-CLS-2 cell line, DMEM: Ham's F12 medium (1:1 mixture), penicillin-streptomycin, heat inactivated fetal bovine serum, D-PBS, Odyssey blocking buffer, 800CW goat anti-rabbit IgG (H+L) antibody, Licor Odyssey CLx Infrared Scanner, H3K18Ac rabbit monoclonal antibody. DRAQS fluorescent probe solution (5 mM), and 100% methanol were commercially available. HB-CLS-2 adherent cells were maintained in complete growth medium (DMEM: Ham's F12 supplemented with 10% v/v heat inactivated fetal bovine serum) and cultured at 37° C. under 5% CO2.
METHOD: Cell Treatment, ICW for detection of H3K18Ac and DNA content. HB-CLS-2 cells were seeded in assay medium (DMEM: Ham's F12 supplemented with 10% v/v heat inactivated fetal bovine serum and 1% Penicillin/Streptomycin) at a concentration of 80,000 cells per mL in a Poly-D-Lysine coated 384-well culture plates at 50 μL per well. Plates were incubated at room temperature for 30 minutes and then incubated at 37° C., 5% CO2 for additional 16-24 hours. Compounds and DMSO normalization were then added directly to the plates using a D300 Digital Dispenser and returned to the incubator at 37° C., 5% CO2 for 2 hrs. After the incubation, the contents of the plates were discarded into the appropriate waste stream and blotted on laboratory tissue to remove residual liquid. 90 μL per well of 100% ice cold methanol was added to the plates and incubated at room temperature for 15 minutes. Then methanol was then discarded into the appropriate waste stream and the plates again blotted on laboratory tissue to remove residual liquid. Plates were transferred to a Biotek 405 plate washer and washed 3 times with 100 μL per well of wash buffer (1X PBS containing 0.1% Triton X-100 (v/v)). Next, 50 μL per well of Odyssey blocking buffer with 0.1% Tween 20 (v/v) was added to each plate and incubated for 1 hour at room temperature. Blocking buffer was removed and 20 μL of primary antibody were added (α-H3K18Ac diluted 1:800 in Odyssey buffer with 0.1% Tween 20 (v/v)) and plates were incubated overnight (16 hours) at 4° C. Plates were washed 5 times with 100 μL per well of wash buffer. Next 20 μL per well of secondary antibody was added (1:400 800CW goat anti-rabbit IgG (H+L) antibody, 1:2000 DRAQ5 in Odyssey buffer with 0.1% Tween 20 (v/v)) and incubated for 1 hour at room temperature. The plates were washed 3 times with 100 μL per well wash buffer then 3 times with 100 μL per well of water. Plates were allowed to dry at room temperature then imaged on the Licor Odyssey CLx machine which measured integrated intensity at 700 nm and 800 nm wavelengths. Both 700 and 800 channels were scanned.

T1 sequence (Q92793 1084-1701): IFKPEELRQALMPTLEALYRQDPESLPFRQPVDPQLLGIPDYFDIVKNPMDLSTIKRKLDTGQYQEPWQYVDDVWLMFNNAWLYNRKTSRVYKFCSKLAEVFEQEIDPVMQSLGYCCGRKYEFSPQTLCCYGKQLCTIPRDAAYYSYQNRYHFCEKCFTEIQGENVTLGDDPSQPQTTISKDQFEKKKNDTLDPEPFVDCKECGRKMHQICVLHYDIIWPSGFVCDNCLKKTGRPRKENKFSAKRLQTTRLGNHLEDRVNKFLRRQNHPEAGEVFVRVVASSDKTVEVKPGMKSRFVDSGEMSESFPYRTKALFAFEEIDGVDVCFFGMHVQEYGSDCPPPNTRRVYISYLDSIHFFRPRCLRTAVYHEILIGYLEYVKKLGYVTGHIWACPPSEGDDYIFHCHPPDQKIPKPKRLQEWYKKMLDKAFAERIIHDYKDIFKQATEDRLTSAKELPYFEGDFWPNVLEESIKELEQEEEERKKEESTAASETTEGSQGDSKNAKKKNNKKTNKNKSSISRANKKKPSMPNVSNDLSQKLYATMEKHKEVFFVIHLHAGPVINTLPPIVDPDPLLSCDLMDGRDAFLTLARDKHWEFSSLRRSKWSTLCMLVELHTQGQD

Row | Compound | IC50 (CREBBP (1084-1701)) | IC50 ([1]; HB-CLS-2 cells) | IC50 [1]
1 | CCn1ncc(CN(C)C(=O)c2cc(-c3ccccc3)nc3ccc(C)cc23)c1C [Compound 150] | 6.6 µM |  | 8.2 µM
2 | CCn1ncc(CN(C)C(=O)c2nc(-c3cnn(C4CCNC4)c3)nc3ccc(Cl)cc23)c1C (centres unmarked) [Compound 206] | 192 µM | 20 µM | 
3 | CCn1ncc(CN(C)C(=O)c2nc(-c3cnn(CCCNC)c3)nc3ccc(Cl)cc23)c1C [Compound 250] | 121 µM | 20 µM | 
4 | Cc1c(CN(C)C(=O)c2nc(-c3cccc(Cl)c3)nc3ccc(Cl)cc23)cnn1C(C)C [Compound 299] | 0.028 µM | 0.61 µM | 
5 | CCc1onc(CN(C)C(=O)c2nc(-c3ccccc3Cl)nc3ccc(Cl)cc23)c1C [Compound 231] | 76 µM | 20 µM | 
6 | CCn1ncc(CN(CCO)C(=O)c2nc(-c3cccc(Cl)c3)nc3ccc(Cl)cc23)c1C [Compound 346] | 0.42 µM | 1.3 µM | 
7 | CCn1ncc(CN(C)C(=O)c2nc(-c3cscn3)nc3ccc(Cl)cc23)c1C [Compound 313] | 1.9 µM | 1.9 µM | 
8 | CCn1ncc(CN(C)C(=O)c2nc(-c3ccccc3Cl)nc3ccc(COC)cc23)c1C [Compound 276] | 0.62 µM | 1.5 µM | 
9 | CCn1ncc(CN(C)C(=O)c2nc(-c3cccc(Cl)n3)nc3ccc(Cl)cc23)c1C [Compound 260] | 1.7 µM | 3.6 µM | 
10 | CCn1ncc(CN(C)C(=O)c2nc(-c3cncn3C)nc3ccc(Cl)cc23)c1C [Compound 363] | 9.2 µM | 7.4 µM | 
11 | CCn1ncc(CN(C)C(=O)c2nc(-c3ccccc3Cl)nc3cc(Cl)ccc23)c1C [Compound 344] | 45 µM |  | 
12 | CCn1ncc(CN(C)C(=O)c2cc(-c3ccc[nH]3)nc3ccc(Cl)cc23)c1C [Compound 320] | 51 µM |  | 
13 | CCc1n[nH]c(CN(C)C(=O)c2cc(-c3ccccc3Cl)nc3ccc(Cl)cc23)c1C [Compound 298] | 31 µM |  | 
14 | CCn1ncc(CN(C)C(=O)c2cc(-c3cccc(Cl)c3)nc3ccc(F)cc23)c1C [Compound 368] | 15 µM |  | 
15 | CCn1ncc(CN(C)C(=O)c2cc(-c3ncccn3)nc3ccc(Cl)cc23)c1C [Compound 371] | 25 µM |  | 
16 | CCn1ncc(CN(C)C(=O)c2cc(-c3ncccc3OC)nc3ccc(Cl)cc23)c1C [Compound 345] | 72 µM |  | 
17 | CCn1ncc(CN(C)C(=O)c2nc(-c3cccc(Cl)c3)nc3ccc(C)cc23)c1C [Compound 275] | 0.014 µM |  | 
18 | CCn1ncc(CN(C)C(=O)c2nc(-c3ccccn3)nc3cc(Cl)ccc23)c1C [Compound 327] | 152 µM |  | 
19 | CCn1ncc(CN(C)C(=O)c2nc(-c3ccccc3Cl)nc3ccc(C#N)cc23)c1C [Compound 310] | 48 µM |  | 
20 | CCn1ncc(CN(C)C(=O)c2cc(-c3ccccc3Cl)nc3cc(C)ccc23)c1C [Compound 263] | 87 µM |  | 
21 | CCn1ncc(CN(C)C(=O)c2cc(-c3ccccc3Cl)nc3c(F)cccc23)c1C [Compound 365] | 14 µM |  | 
22 | CCn1ncc(CN(C)C(=O)c2cc(-c3ccccc3Cl)nc3cc(Cl)ccc23)c1C [Compound 270] | 25 µM |  | 
23 | CN(Cc1cc2n(n1)CCC2)C(=O)c1cc(-c2cccc(Cl)c2)nc2ccc(Cl)cc12 [Compound 271] | 14 µM |  | 
24 | Cc1c(CN(C)C(=O)c2cc(-c3cccc(Cl)c3)nc3ccccc23)cnn1C [Compound 265] | 195 µM |  | 
25 | CCn1nnc(CN(C)C(=O)c2nc(-c3ccccc3Cl)nc3ccc(Cl)cc23)c1C [Compound 292] | 50 µM |  | 
26 | CCc1ccc2c(C(=O)N(C)Cc3cnn(CC)c3C)cc(-c3ccccc3Cl)nc2c1 [Compound 375] | 102 µM |  | 
27 | CCn1ncc(CN(C)C(=O)c2nc(-c3ncccn3)nc3ccc(Cl)cc23)c1C [Compound 278] | 132 µM |  | 
28 | CCn1ncc(CN(C)C(=O)c2nc(-c3cccc(Cl)c3)nc3ccc(Cl)c(C)c23)c1C [Compound 256] | 1.4 µM |  | 
29 | CCn1ncc(CN(C)C(=O)c2cc(-c3ccccc3Cl)nc3cc(OC)ccc23)c1C [Compound 322] | 134 µM |  | 
30 | CCc1ncc(CN(C)C(=O)c2nc(-c3cccc(Cl)c3Cl)nc3ccc(Cl)cc23)n1C [Compound 274] | 0.0032 µM |  | 

Continued by falling IC50 (CREBBP (1084-1701)), values first:

Row | IC50 (CREBBP (1084-1701)) | IC50 ([1]; HB-CLS-2 cells) | IC50 [1] | Compound
31 | 135 µM | 20 µM |  | CCn1ncc(CN(C)C(=O)c2nc(-c3cnn(CCNC)c3)nc3ccc(Cl)cc23)c1C [Compound 213]
32 | 120 µM |  |  | CCn1ncc(CN(C)C(=O)c2cc(-c3cn(C)cn3)nc3cc(Cl)ccc23)c1C [Compound 257]
33 | 99 µM | 20 µM |  | CCn1ncc(CN(C)C(=O)c2cc(-c3cn(CCCNC(=O)OC(C)(C)C)cn3)nc3ccc(Cl)cc23)c1C [Compound 243]
34 | 72 µM |  |  | CN(Cc1cnn2c1CCC2)C(=O)c1cc(-c2cccc(Cl)c2)nc2ccc(Cl)cc12 [Compound 367]
35 | 66 µM |  |  | CCn1ncc(CN(C)C(=O)c2cc(-c3ccccc3)nc3ccc(OC)cc23)c1C [Compound 272]
36 | 48 µM |  |  | CCn1ncc(CN(C)C(=O)c2cc(-c3ccccc3F)nc3ccccc23)c1C [Compound 378]
37 | 40 µM |  |  | CCn1ncc(CN(C)C(=O)c2cc(-c3ccccn3)nc3ccccc23)c1C [Compound 326]
38 | 38 µM |  |  | CCn1ncc(CN(C)C(=O)c2cc(-c3cccc(Cl)c3)nc3ccccc23)c1C [Compound 354]
39 | 32 µM |  |  | CCn1ncc(CN(C)C(=O)c2cc(-c3ccccc3Cl)nc3ccccc23)c1C [Compound 376]
40 | 26 µM |  |  | CCn1ncc(CN(C)C(=O)c2cc(-c3cnn(C)c3)nc3ccc(Cl)cc23)c1C [Compound 289]
41 | 5.5 µM | 15 µM |  | CCn1ncc(CN(C)C(=O)c2cc(-c3cccc(Cl)c3)nc3ccc(N(C)C)cc23)c1C [Compound 369]
42 | 5.4 µM |  |  | CCn1ncc(CN(C)C(=O)c2nc(-c3ccccn3)nc3ccc(Cl)cc23)c1C [Compound 262]
43 | 3.9 µM |  |  | CCn1ncc(CN(C)C(=O)c2nc(-c3cc(Cl)ccn3)nc3ccc(Cl)cc23)c1C [Compound 333]
44 | 2 µM | 3.9 µM |  | CCn1ncc(CN(C)C(=O)c2nc(-c3cccc(C#N)c3)nc3ccc(Cl)cc23)c1C [Compound 301]
45 | 0.67 µM |  |  | CCn1ncc(CN(C)C(=O)c2nc(-c3ccccc3Cl)nc3ccc(C)cc23)c1C [Compound 370]
46 | 0.35 µM | 1.7 µM |  | CCn1ncc(CN(C)C(=O)c2nc(-c3cccc(F)c3)nc3ccc(Cl)cc23)c1C [Compound 316]
47 | 0.27 µM |  |  | CCn1ncc(CN(C)C(=O)c2nc(-c3cccc(C(F)(F)F)c3)nc3ccc(Cl)cc23)c1C [Compound 280]
48 | 0.22 µM | 0.57 µM |  | CCn1ncc(CN(C)C(=O)c2nc(-c3ccccc3C#N)nc3ccc(Cl)cc23)c1C [Compound 294]
49 | 0.028 µM | 0.72 µM |  | CCn1ncc(CN(C)C(=O)c2nc(-c3cccc(Cl)c3)nc3ccc(COC)cc23)c1C [Compound 357]
50 | 0.0028 µM | 0.48 µM |  | CCc1ccc2nc(-c3cccc(Cl)c3)nc(C(=O)N(C)Cc3cnn(CC)c3C)c2c1 [Compound 361]
